Assays:
C57BL/6 mice = test: Blood H2O2 measurement after LPS; assay type: in vivo, mouse; settings: LPS 6 h + KDS12025 3 mg/kg i.p.
Description: C57BL/6 mice were intraperitoneally (i.p.) injected with lipopolysaccharide (LPS) and sacrificed at 2, 6, and 24 h post-injection. Blood was collected from the heart using a syringe pre-treated with 0.5 M EGTA to prevent coagulation. Plasma was separated by centrifuging the collected blood at 1,500 × g for 10 min at 4 °C. H2O2 levels in the plasma were quantified using the Amplex Red assay according to the manufacturer’s instructions. The H2O2 levels peaked at 6 h post-LPS injection. Subsequently, KDS12025 (3 mg/kg/day) was intraperitoneally administered concurrently with LPS at the 6 h time point, and plasma H2O2 levels were measured to assess the effect of the compound.

C57BL/6J mice = test: PhenoMaster respiration and metabolic analysis; assay type: in vivo, mouse; design: energy expenditure (Fig. S8b) / total food consumption (Fig. S8c) / total drink consumption (Fig. S8d) / oxygen consumption (stats entry 2j): unit not given here
Description: For respiration and metabolic analysis, PhenoMaster (TSE Systems, Germany) was employed. All C57BL/6J mice aged 8–10 weeks underwent initial chamber habituation and gas calibration on day 0. Starting on day 3, the mice were administered KDS12025 dissolved in water at dosages of 0.1, 1, and 10 mg/kg/day (ad libitum drinking water). Respiratory and metabolic measurements, including oxygen consumption, carbon dioxide production, and the respiratory exchange ratio (RER, calculated as VCO2/VO2), as well as food and drink intake and energy expenditure, were conducted from day 4. The recording ends on day 8 with data collection.

SMILES: CNc1ccc(NCCc2ccccc2OC)cc1.Cl [KDS12025, N^1-(2-methoxyphenethyl)-N^4-methylbenzene-1,4-diamine hydrochloride salt]
- plasma H2O2 level (Fig. S20r) (C57BL/6 mice): Control (0.3325±0.02161, n=6), LPS-6hrs (1.295±0.05323, n=6), LPS-6hrs+KDS (0.7847±0.08078, n=6) One-way ANOVA with Tukey's multiple comparisons test, F(2,15) = 70.74, p < 0.001 Control vs. LPS-6hrs, p < 0.001; Control vs. LPS-6hrs+KDS, p < 0.001; LPS-6hrs vs. LPS-6hrs+KDS, p < 0.001
- carbon dioxide production (stats entry 2k) (C57BL/6J mice; 0.1mpk, dark): 3345
- energy expenditure (Fig. S8b) (C57BL/6J mice; 0.1mpk, dark): 22.37±1.215
- oxygen consumption (stats entry 2j) (C57BL/6J mice; 0.1mpk, dark): 4228
- respiratory exchange ratio (stats entry 2l) (C57BL/6J mice; 0.1mpk, dark): 0.849
- total drink consumption (Fig. S8d) (C57BL/6J mice; 0.1mpk, dark): 0.1272±0.009
- total food consumption (Fig. S8c) (C57BL/6J mice; 0.1mpk, dark): 0.1543±0.018
- carbon dioxide production (stats entry 2k) (C57BL/6J mice; 0.1mpk, full day): 3292
- energy expenditure (Fig. S8b) (C57BL/6J mice; 0.1mpk, full day): 22.21±1.751
- oxygen consumption (stats entry 2j) (C57BL/6J mice; 0.1mpk, full day): 4161
- respiratory exchange ratio (stats entry 2l) (C57BL/6J mice; 0.1mpk, full day): 0.857
- total drink consumption (Fig. S8d) (C57BL/6J mice; 0.1mpk, full day): 0.108±0.005
- total food consumption (Fig. S8c) (C57BL/6J mice; 0.1mpk, full day): 0.126±0.0123
- carbon dioxide production (stats entry 2k) (C57BL/6J mice; 0.1mpk, light): 3065
- oxygen consumption (stats entry 2j) (C57BL/6J mice; 0.1mpk, light): 3923
- respiratory exchange ratio (stats entry 2l) (C57BL/6J mice; 0.1mpk, light): 0.833
- carbon dioxide production (stats entry 2k) (C57BL/6J mice; 1mpk, dark): 3167
- energy expenditure (Fig. S8b) (C57BL/6J mice; 1mpk, dark): 21.29±0.7258
- oxygen consumption (stats entry 2j) (C57BL/6J mice; 1mpk, dark): 4063
- respiratory exchange ratio (stats entry 2l) (C57BL/6J mice; 1mpk, dark): 0.891
- total drink consumption (Fig. S8d) (C57BL/6J mice; 1mpk, dark): 0.1220±0.0208
- total food consumption (Fig. S8c) (C57BL/6J mice; 1mpk, dark): 0.1761±0.0164
- carbon dioxide production (stats entry 2k) (C57BL/6J mice; 1mpk, full day): 3075
- energy expenditure (Fig. S8b) (C57BL/6J mice; 1mpk, full day): 21.26±0.07088
- oxygen consumption (stats entry 2j) (C57BL/6J mice; 1mpk, full day): 3871
- respiratory exchange ratio (stats entry 2l) (C57BL/6J mice; 1mpk, full day): 0.883
- total drink consumption (Fig. S8d) (C57BL/6J mice; 1mpk, full day): 0.0902±0.0248
- total food consumption (Fig. S8c) (C57BL/6J mice; 1mpk, full day): 0.166±0.03508
- carbon dioxide production (stats entry 2k) (C57BL/6J mice; 1mpk, light): 2916
- energy expenditure (Fig. S8b) (C57BL/6J mice; 1mpk, light): 19.95±0.3562
- oxygen consumption (stats entry 2j) (C57BL/6J mice; 1mpk, light): 3584
- respiratory exchange ratio (stats entry 2l) (C57BL/6J mice; 1mpk, light): 0.860
- total drink consumption (Fig. S8d) (C57BL/6J mice; 1mpk, light): 0.0790±0.0149
- total food consumption (Fig. S8c) (C57BL/6J mice; 1mpk, light): 0.1032±0.009
- carbon dioxide production (stats entry 2k) (C57BL/6J mice; 10mpk, dark): 3344
- energy expenditure (Fig. S8b) (C57BL/6J mice; 10mpk, dark): 20.73±0.9735
- oxygen consumption (stats entry 2j) (C57BL/6J mice; 10mpk, dark): 4216
- respiratory exchange ratio (stats entry 2l) (C57BL/6J mice; 10mpk, dark): 0.877
- total drink consumption (Fig. S8d) (C57BL/6J mice; 10mpk, dark): 0.1041±0.0394
- total food consumption (Fig. S8c) (C57BL/6J mice; 10mpk, dark): 0.1572±0.01881
- carbon dioxide production (stats entry 2k) (C57BL/6J mice; 10mpk, full day): 3120
- energy expenditure (Fig. S8b) (C57BL/6J mice; 10mpk, full day): 19.14±0.6082
- oxygen consumption (stats entry 2j) (C57BL/6J mice; 10mpk, full day): 3593
- respiratory exchange ratio (stats entry 2l) (C57BL/6J mice; 10mpk, full day): 0.857
- total drink consumption (Fig. S8d) (C57BL/6J mice; 10mpk, full day): 0.0776±0.01206
- total food consumption (Fig. S8c) (C57BL/6J mice; 10mpk, full day): 0.1288±0.0108
- carbon dioxide production (stats entry 2k) (C57BL/6J mice; 10mpk, light): 2900
- energy expenditure (Fig. S8b) (C57BL/6J mice; 10mpk, light): 18.91±1.057
- oxygen consumption (stats entry 2j) (C57BL/6J mice; 10mpk, light): 3753
- respiratory exchange ratio (stats entry 2l) (C57BL/6J mice; 10mpk, light): 0.831
- total drink consumption (Fig. S8d) (C57BL/6J mice; 10mpk, light): 0.05856±0.0075
- total food consumption (Fig. S8c) (C57BL/6J mice; 10mpk, light): 0.09464±0.0095

— paper PMC12373846, “Hemoglobin as a pseudoperoxidase and drug target for oxidative stress-related diseases” (Signal Transduction and Targeted Therapy, 2025)
